Test results from paper PMC9532755, “Impact of lactisole on the time-intensity profile of selected sweeteners in dependence of the binding site” (Food Chemistry: X, 2022).

Tested on: perceived sweet intensity (panelists)
Assay: Sensory time-intensity (TI) measurement of sweetness by a trained panel
Assay type: in vivo, human
Details: for AUC of time-intensity curve / lingering (intensity at 90 sec) / onset (time-point of first maximum intensity) / max. int. (maximum sweet intensity): lactisole alone, mean ± SEM; for AUC of time-intensity curve: 180 sec evaluation; for max. int. (maximum sweet intensity): unstructured scale 0-100
Excerpt: All panelists gave their written informed consent for participating in the panel and had to complete a sensory training. […] On a last training day, the evaluation on unstructured scales and the time-dependent evaluation on the computer were trained. All panelists reported to be in good general health condition, and not being under medication or pregnant. At least one hour before every training or tasting, panelists were instructed not to smoke and not to consume intense tasting food or beverage (e.g. coffee, chili, garlic, chewing gum) and to avoid in general strong hunger or fullness as well as strong odors or perfume on test days.
Every test solution was assessed randomly at two different test days with at least 8 panelists participating per replicate. The panelists were free to choose to participate at the different test days. A maximum of five test compounds were assessed in one session. All samples were coded with three-digit random code and presented to the panelists in randomized order. On each test day, panelists were presented five sweet solutions with 0, 25, 50, 100 and 200 g/L sucrose as a scale training for the ratings from “not at all” to “very intensive” sweetness. […] The three minutes of evaluation were chosen to capture as much of the lingering as possible without wearing out the panelists during the evaluation. A total of 350 measuring time points was recorded within the pre-set time frame, especially to see differences in the first seconds of evaluation, which are important for the onset. The panelists were asked to take the sample (20 mL) into their mouth, while starting the timer and simultaneously the evaluation of sweet intensity over the time, and to spit out the sample after ten seconds while continuing the evaluation of the sweetness intensity until the end of the three minutes.
For comparison of the time-dependent properties, the following descriptors were used: the maximum intensity at the first 30 sec of evaluation as “max. intensity”, the time-point of the first maximum intensity as “onset” in sec, […], and the area under the curve from the time-intensity plots as “AUC” as a marker for the overall intensity and duration.
All sensory experiments were conducted at the Christian Doppler Laboratory for Taste Research at the Institute for Physiological Chemistry, University of Vienna, Austria, at room temperature (21 – 23 °C). • Calcium mobilization assay
The statistical analysis and graphical representation were performed with GraphPad Prism 9.0 for sensory results and with SigmaPlot 14.0 for cell experiments. To evaluate the sensory dose–response effects of ascending sweetener concentration w/o lactisole, an asymmetrical five-parameter curve (Richard́s five-parameter dose–response curve) was fitted. The data are presented as means ± SEM from at least 16 single evaluations. Statistical significance between the different test compounds and concentration-dependent effects was assessed by two-way ANOVAs with Tukey post hoc test using Graph Pad Prism. The normal distribution of the data sets was checked by evaluation of the kurtosis (between −7 to + 7) and the skewness (between −3 to + 3). Equal variance was tested using Levenés test. In case the assumptions of a normal distribution and equal variance were not met, the non-parametric ANOVA on ranks (Kruskal-Wallis Test) with Dunn's post-hoc test without the calculation of interaction was applied. A Pearson product moment correlation was conducted to investigate relationships between sensory results and cell responses of the tested sweeteners.

COc1ccc(OC(C)C(=O)O)cc1 (stereo not drawn) [lactisole, sodium 2-(4-methoxyphenoxy) propanoate]
time after which a sweet perception (sweet aftertaste) was reported (lactisole 0.46 mM and 0.92 mM, sip-and-spit, spit out after ten seconds): around 30 sec | AUC of time-intensity curve (0.46 mM): 4285 ± 926 | lingering (intensity at 90 sec) (0.46 mM): 16.96 ± 3.9 | onset (time-point of first maximum intensity) (0.46 mM): 106.0 ± 19.8 s | max. int. (maximum sweet intensity) (0.46 mM): 23.3 ± 4.0 | AUC of time-intensity curve (0.92 mM): 5990 ± 1122 | lingering (intensity at 90 sec) (0.92 mM): 21.12 ± 3.8 | onset (time-point of first maximum intensity) (0.92 mM): 144.9 ± 21.9 s | max. int. (maximum sweet intensity) (0.92 mM): 29.8 ± 4.2
